We go through 1 molecule from patent US8921403B2, “Combinations of imazalil and hydroxypyridones” (Janssen Pharmaceutica, NV, priority 2007, dated 2014).

The subject of this test is Staphylococcus aureus (g+) LMG 8064. As to the kind of experiment: poison plate assay (bacteria). Format: cell-based. Conditions: LMG8064, 120 h, ppm total active ingredient, Tryptose Agar, 27° C., 70% relative humidity, growth evaluated after five days, ratio % (I) + % (II-a), read-out: MIC-values (minimum inhibitory concentration) in ppm. The source says: When the Synergy Index is greater than 1.0, antagonism is indicated. When the SI is equal to 1.0, additivity is indicated.

Take `C=CCOC(Cn1ccnc1)c1ccc(Cl)cc1Cl` (stereo not shown) [100 + 0]: the MIC turned out to be 25 µg/mL.
